Legend:
LN18 human glioma cells = experiment: Laminin internalization in vector or LARGE expressing cells, flow cytometry; assay type: cell-based
Text: Loss of DG's laminin binding function is a cause of some congenital muscular dystrophies (CMDs) and is a frequent defect in cancers including those of the breast, prostate, colon, and brain (Akhavan A et al, 2012 supra; Beltran-Valero de Bernabe et al, 2009 infra). This loss of function arises from altered glycosylation of DG and can be restored in many carcinoma and glioblastoma cells by expression of the enzyme LARGE, a glycosyltransferase that confers laminin-binding properties to DG (Akhavan et al., 2012; Beltran-Valero de Bernabe D et al, J Biol Chem 284, 11279-11284 (2009); incorporated by reference herein. Based on these facts in light of the disclosure herein, it was hypothesized that laminin internalization would be severely disrupted in cancer cells lacking DG activity and enhanced by the restoration of such activity. This hypothesis was tested in MDA-MB-231 human breast cancer cells and LN18 human glioma cells, both of which lack DG glycosylation and function. […] Expression of LARGE restored normal glycosylation of DG as determined by western blot analysis with IIH6 antibody (FIG. 10A, LARGE) and functional interaction of DG in the laminin assembly assay (FIG. 10B, LARGE). These cells were subsequently assayed for laminin internalization by flow cytometry.
Flow Cytometry—Cells were plated in 12 well plates at 200,000 cells/well. The following day, media was changed to serum-free media with or without 10 μg/ml rhodamine laminin or 40 μg/ml FITC-dextran (500S-Sigma-Aldrich Corp., St. Louis, Mo., USA). Unless otherwise indicated, cells were incubated 18-24 hrs, washed once with PBS, and cells trypsinized. Cells were washed in 5 ml cold PBS/1 mM EDTA, pelleted, and resuspended in 1 ml PBS/1 mM EDTA. Using a BD FACScan flow cytometer (BD Biosciences, San Jose, Calif., USA), 10,000 cells/well were counted, background fluorescence from the cell counts with no added laminin subtracted and the mean fluorescence intensity values reported. Graphed data are compiled from duplicate wells from each experiment with a minimum of three separate experiments, unless indicated otherwise.

E3D1 MECs = experiment: Steady-state laminin internalization, flow cytometry; assay type: cell-based, mouse; settings: steady-state, continuous Rhod-Ln
Description: Endocytic internalization of laminin was confirmed by multiple methods. Laminin was labeled with the pH-sensitive fluorescent label CypHer-5 (CyPher-Ln) to exclusively image internalized laminin in attached, living cells. The fluorophore CypHer-5 is non fluorescent at pH 7.4 and maximally fluorescent at pH 5.5, permitting fluorescence detection of laminin within intracellular acidic vesicles (pH 4.8-6.0). Following overnight incubation of MECs with CypHer-Ln, live cell imaging detected bright fluorescent vesicles moving rapidly within the cytoplasm (FIG. 3A). Intracellular laminin within the cytoplasm was also independently observed via removal of surface bound laminin followed by confocal imaging. MECs were exposed to 10 μg/ml Rhod-Ln for 18 hrs, trypsinized, washed with PBS/EDTA to remove surface-bound laminin, allowed to re-attach, and stained with the membrane marker FITC-concanavalin A (conA). […] This method of cell treatment permitted a quantitative, flow cytometry-based assay of laminin internalization. In this assay, cells incubated with Rhod-Ln were trypsinized, washed (as in FIG. 3B), and the remaining internal Rhod-Ln fluorescence quantified by flow cytometry. Using this assay, laminin internalization was confirmed in diverse cell types including in primary mammary epithelial cultures, mammary epithelial cell lines (E3D1, MEpG), […] fibroblasts (NIH 3T3 cells), primary astrocytes, and human cancer cell lines (breast and glioma).
To explore the dynamics of laminin internalization, steady-state time course experiments (measuring internalization in the continuous presence of labeled laminin) and pulsed time course experiments were performed. In pulsed time course experiments, the cells were exposed to exogenous Rhod-Ln at 4° C. to prevent internalization, excess unbound Rhod-Ln was washed away, and then cells were returned to 37° C. to allow synchronized internalization and trafficking to proceed. […] Following pulsed and synchronized laminin exposure, Rhod-Ln was again observed to internalize within 1 hour, but reached a maximum at 8 hours, after which the levels of internal laminin declined (FIG. 4A). After 24 hours, internal Rhod-Ln levels declined to ˜37% of the maxima, indicating degradation (MFI: 315±3.5 to 119±11.5). To determine if laminin was degraded using classical degradation pathways, pulsed time course experiments in the presence of leupeptin (lysosome inhibitor) or […] (proteasome inhibitor) were performed.
Laminin internalization could be mediated by either receptor-dependent or receptor independent mechanisms (e.g. pinocytosis). Steady-state laminin internalization was measured using flow cytometry in the presence of potential inhibitors and compared to internalization of 500S FITC-dextran, a molecule of similar molecular size to laminin known to be endocytosed by receptor-independent mechanisms. The specific inhibitor of dynamin, dynasore (Macia E et al, Dev Cell, 839-850 (2006); incorporated by reference herein), inhibited internalization of laminin by >75% (FIG. 6A). Under hypertonic sucrose, a condition known to inhibit receptor-mediated endocytosis (Heuser J E and Anderson R G, J Cell Biol 108, 389-400 (1989); incorporated by reference herein) laminin internalization was reduced by 65% (FIG. 6A). Addition of heparin, a molecule known to bind the laminin LG4-5 domain (Harrison D et al, J Biol Chem 282, 11573-11581 (2007); incorporated by reference herein), decreased laminin internalization by 69% relative to controls (FIG. 6A). […] Specifically, under steady state, laminin internalization was nearly linear throughout the 24 hour time course, whereas dextran internalization plateaued after 16 hrs.
Flow Cytometry—Cells were plated in 12 well plates at 200,000 cells/well. The following day, media was changed to serum-free media with or without 10 μg/ml rhodamine laminin or 40 μg/ml FITC-dextran (500S-Sigma-Aldrich Corp., St. Louis, Mo., USA). […]

Rhod-Ln: laminin-111 labeled with NHS-rhodamine; dystroglycan binding reagent
increase in MFI of internalized laminin, LARGE vs vector (LN18 human glioma cells; LN18): 10 fold
MFI of internalized laminin, LARGE expressing cells (LN18 human glioma cells; LN18 LARGE, n=3): 1.49±0.049
MFI of internalized laminin, vector cells (LN18 human glioma cells; LN18 empty vector, n=3): 0.145±0.155
time at which internalized laminin was measurable (E3D1 MECs): ≤ 1 h
time to plateau of laminin internalization (E3D1 MECs): > 30 h

— patent US20170307610A1, “COMPOUNDS THAT BIND DYSTROGLYCAN AND USES THEREOF” (OREGON HEALTH & SCIENCE UNIVERSITY, priority 2014, published 2017)
